Measured values from patent US20240390301A1, “COMBINATIONS OF PERIPHERAL 5-HT2A RECEPTOR ANTAGONISTS AND CENTRAL 5-HT2A RECEPTOR AGONISTS” (priority 2021, published 2024).
Where two headings read alike, the source gives them in different places.

Tests used:
5-HT2A receptor = target: T1, 5-HT2A receptor (Homo sapiens, UniProt P28223); assay: FLIPR Ca2+ flux functional assay, antagonist activity at 5-HT2A; format: cell-based; conditions: for 5-HT2A % Inh @ Max Dose: at max dose
T1 construct: WuXi AppTec (Hong Kong) Limited (contract laboratory that ran the assay)
T1 sequence (P28223 whole entry): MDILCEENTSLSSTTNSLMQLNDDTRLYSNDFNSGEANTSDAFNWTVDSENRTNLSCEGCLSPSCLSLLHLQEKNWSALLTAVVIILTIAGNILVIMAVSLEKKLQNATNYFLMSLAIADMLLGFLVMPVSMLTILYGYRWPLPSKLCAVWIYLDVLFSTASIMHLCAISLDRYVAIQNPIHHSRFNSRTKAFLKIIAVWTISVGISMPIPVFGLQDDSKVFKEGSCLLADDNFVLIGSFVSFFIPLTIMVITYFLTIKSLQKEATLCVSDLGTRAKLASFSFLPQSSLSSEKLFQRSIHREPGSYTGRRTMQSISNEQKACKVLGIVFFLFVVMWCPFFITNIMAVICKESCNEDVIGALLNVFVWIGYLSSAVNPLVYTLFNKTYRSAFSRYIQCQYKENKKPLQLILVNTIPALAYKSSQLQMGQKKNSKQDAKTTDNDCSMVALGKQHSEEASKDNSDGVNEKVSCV
Experimental: Key peripheral 5-HT2A receptors antagonists were tested for antagonist activity at several serotonin (5-HT) receptor subtypes (5-HT2A and 5-HT2B) using Ca^2+ flux functional assays, with the results summarized in Table 3. […] The ability to block peripheral 5-HT2B receptors in addition to 5-HT2A receptors is advantageous in the context of the present disclosure, as such blockade is likely to mitigate the potential cardiac valvulopathy induced by 5-HT2B receptor agonists. This is expected to be a potential side effect of many classical psychedelics, which activate 5-HT2B receptors as a secondary target. Accordingly, xylamidine and BW501C67 are preferred over Compound 14a for use in combination with 5-HT2A receptor agonists that also activate 5-HT2B receptors, since they also block this important off target. When taken together with the binding data presented above, xylamidine and BW501C67 appear to be potent pan-antagonists for 5-HT2-type receptors, whereas Compound 14a is selective for 5-HT2A receptors specifically.
Functional Assays at 5-HT2A and 5-HT2B. Antagonist activity at 5-HT2A and 5-HT2B receptors was determined using a FLIPR Ca^2+ flux assay at WuXi AppTec (Hong Kong) Limited according to their standard protocols. Briefly, stably transfected HEK293 cells expressing the receptor of interest were grown and plated in a 384 well plate and incubated at 37° C. and 5% CO2 overnight. This was combined with a fluorescent dye (Fluo-4 Direct™) to make a final assay concentration of 2.5 mM. Compounds were diluted 1:3.16 for 10 points and 750 nL was added to a 384 well compound plate using ECHO along with 30 μL assay buffer. The fluorescent dye was then added to the assay plate along with assay buffer to a final volume of 40 μL. The cell plate was incubated for 50 min at 37° C. and 5% CO2 and placed into the FLIPR Tetra along with the compound plate. 10 μL of references and compounds were then transferred from the compound plate into the cell plate and the fluorescent signal was read. Next, 10 μL of a 6× solution of 5-carboxamidotryptamine (5-CT) at the calculated EC80 was added and the fluorescent signal read again. Finally, the Max-Min signal was calculated for the runs with and without agonist.

[1] = system: DOPR-induced elevation of MABP; assay: Effect on DOPR-induced blood pressure (MABP) elevation in anesthetized rats; format: in vivo, Sprague-Dawley rats
Experimental: Key peripheral 5-HT2A receptor antagonists were tested for their ability to block the increases in blood pressure (BP) induced by a maximally effective dose (in terms of HTR response) of 2,5-dimethoxy-4-propylamphetamine (DOPR) in anesthetized rats, with the key results summarized in FIGS. 5-9. FIG. 5 depicts in a bar graph the effect of xylamidine pre-treatment on DOPR-induced elevation of MABP in the rat. The indicated doses of xylamidine or vehicle were administered SC, followed 10 minutes later by DOPR (0.32 mg/kg, SC), and mean percent change in MABP relative to the baseline recording for each group was calculated for the 20 minutes immediately after DOPR administration (10-30 min after administration of xylamidine). *p<0.05, **p<0.01 vs. vehicle using Dunnett's multiple comparison test. FIG. 6 depicts in a bar graph the effect of BW501C67 pre-treatment on DOPR-induced elevation of MABP in the rat. The indicated doses of BW501C67 or vehicle were administered SC, followed 10 minutes later by DOPR (0.32mg/kg, SC), and mean percent change in MABP relative to the baseline recording for each group was calculated for the 20 minutes immediately after DOPR administration (10-30 min after administration of BW501C67). *p<0.05 vs. vehicle using Dunnett's multiple comparison test. FIG. 7 depicts in a bar graph the effect of xylamidine pre-treatment on DOPR-induced elevation of MABP in the rat. The indicated doses of xylamidine or vehicle were administered SC. followed 10 minutes later by DOPR (0.32 mg/kg, SC), and mean percent change in MABP relative to the baseline recording for each group was calculated for the period 45-55 minutes after DOPR administration (55-65 min after administration of xylamidine). *p<0.05, ***p<0.001 vs. vehicle using Dunnett's multiple comparison test. FIG. 8 depicts in a bar graph the effect of BW501C67pre-treatment on DOPR-induced elevation of MABP in the rat. The indicated doses of BW501C67or vehicle were administered SC, followed 10 minutes later by DOPR (0.32 mg/kg, SC), and mean percent change in MABP relative to the baseline recording for each group was calculated for the period 45-55 minutes after DOPR administration (55-65 min after administration of BW501C67). *p<0.05, **p<0.01, ***p<0.001 vs. vehicle using Dunnett's multiple comparison test. FIG. 9 depicts in a bar graph the effect of Compound 14a pre-treatment on DOPR-induced elevation of MABP in the rat. The indicated doses of Compound 14a or vehicle were administered SC, followed 10 minutes later by DOPR (0.32 mg/kg, SC), and mean percent change in MABP relative to the baseline recording for each group was calculated for the 20 minutes immediately after DOPR administration (10-30 min after administration of Compound 14a).
Animals. Adult male Sprague-Dawley rats aged 8 weeks (body weight ˜270 g) were used in these experiments. Animals were pair housed under controlled temperatures and 12-hour light/dark cycles (lights on between 07:00-19:00 h), with ad libitum food and water. The protocol was approved by the Eurofins Advinus Institutional Animal Care and Use Committee. […]
Drugs and Drug administration. […] The 5-HT2A receptor agonist DOPR was then administered at 1 dose (0.32 mg/kg. SC, in saline, calculated based on the free base) to all animals 10 min after pretreatment with the test peripheral antagonist or vehicle (saline). […]

[2] = 10-30 min after antagonist administration (0.01 to 10 mg/kg SC), DOPR 0.32 mg/kg SC
[3] = 55-65 min after antagonist administration (45-55 min after DOPR 0.32 mg/kg SC)
[4] = antagonist activity, Ca2+ flux, HEK293 cells, agonist at EC80, read-out: 5-HT2A IC50

With `CC(CNC(=N)CNc1ccccc1)Oc1cccc(Cl)c1.O=CO` (centres unmarked) [BW501C67, N-(2-(3-chlorophenoxy)propyl)-2-(phenylamino)acetimidamide formate] the IC50 (5-HT2A receptor) was 14.5 nM, the “5-HT2A % Inh @ Max Dose” value (5-HT2A receptor; antagonist activity, Ca2+ flux) was 100.13% and the “Attenuation of DOPR-induced elevation of MABP” value (from here on “Attenuation”) [1, 2] was “significantly attenuated”. For the same compound, the “Attenuation” value [1, 3] was “showing activity at lower doses”.
For `CC(C)COc1ccc(CNC(=O)N(Cc2ccc(F)cc2)C2CCN(C(=O)CC[C@H](N)C(=O)O)CC2)cc1` [Compound 14a, (S)-2-amino-5-(4-(1-(4-fluorobenzyl)-3-(4-isobutoxybenzyl)ureido)piperidin-1-yl)-5-oxopentanoic acid], the IC50 (5-HT2A receptor; [4]) was 297 nM, the “5-HT2A % Inh @ Max Dose” value (5-HT2A receptor; antagonist activity, Ca2+ flux) was 100.01% and the “Attenuation” value [1, 2] was “failed to significantly attenuate”.
`COc1cccc(OC(C)CNC(=N)Cc2cccc(C)c2)c1.O=C(O)C(F)(F)F` (centres unmarked) [xylamidine, N-(2-(3-methoxyphenoxy)propyl)-2-(m-tolyl) acetimidamide trifluoroacetate] was tested, and the IC50 (5-HT2A receptor; [4]) was 24 nM, the “5-HT2A % Inh @ Max Dose” value (5-HT2A receptor; antagonist activity, Ca2+ flux) was 99.81% and the “Attenuation” value [1, 2] was “significantly attenuated”. For the same compound, the “Attenuation” value [1, 3] was “showing activity at lower doses”.
